Assay results as given in ChEMBL document CHEMBL3885881, “DrugMatrix”.

Organism: Rattus norvegicus
Experiment: DrugMatrix - Regimen: Daily Repeat
Type: toxicity, organism-based, Sprague-Dawley
Set-up: regimen Daily Repeat, gender Male, age 6-8 weeks
Conditions: in vivo, po, route oral GAVAGE, vehicle .5 % CMC; for ABSOLUTE BASOPHIL / ABSOLUTE EOSINOPHIL / ABSOLUTE LYMPHOCYTE / ABSOLUTE MONOCYTE / ABSOLUTE SEGMENTED NEUTROPHIL / BASOPHIL / EOSINOPHIL / ERYTHROCYTE COUNT / HEMATOCRIT / HEMOGLOBIN / LEUKOCYTE COUNT / LYMPHOCYTE / MEAN CORPUSCULAR HEMOGLOBIN / MEAN CORPUSCULAR HEMOGLOBIN CONCENTRATION / MEAN CORPUSCULAR VOLUME / MONOCYTE / NEUTROPHIL / NUCLEATED RED BLOOD CELLS / PLATELET COUNT: tissue Blood; for ALANINE AMINOTRANSFERASE / ALBUMIN / ALKALINE PHOSPHATASE / ASPARTATE AMINOTRANSFERASE / BLOOD UREA NITROGEN / CARBON DIOXIDE / CHLORIDE / CHOLESTEROL / CREATINE PHOSPHOKINASE / CREATININE / GLUCOSE / LACTATE DEHYDROGENASE / LIPASE / PHOSPHORUS / POTASSIUM / SODIUM / TOTAL BILIRUBIN / TOTAL PROTEIN / URIC ACID: tissue Plasma
[1] = 100 mg/kg, 72 h, dose level Low, time 3 day
[2] = 100 mg/kg, 120 h, dose level Low, time 5 day
[3] = 1500 mg/kg, 72 h, dose level High, time 3 day
[4] = 1500 mg/kg, 120 h, dose level High, time 5 day

Nc1nc2c(c(=O)[nH]1)N(C=O)C(CNc1ccc(C(=O)N[C@@H](CCC(=O)O)C(=O)O)cc1)CN2 (some centres not stated) [LEUCOVORIN]
ABSOLUTE BASOPHIL [1]: 0 CELLS/uL | ABSOLUTE EOSINOPHIL [1]: 0 CELLS/uL | ABSOLUTE LYMPHOCYTE [1]: 14793 CELLS/uL | ABSOLUTE MONOCYTE [1]: 101.33 CELLS/uL | ABSOLUTE SEGMENTED NEUTROPHIL [1]: 1572.33 CELLS/uL | BASOPHIL [1]: 0% | EOSINOPHIL [1]: 0% | ERYTHROCYTE COUNT [1]: 5.73 x10E6/uL | HEMATOCRIT [1]: 35.97% | HEMOGLOBIN [1]: 14.23 G/DL | LEUKOCYTE COUNT [1]: 16.47 x10E3/uL | LYMPHOCYTE [1]: 89.67% | MEAN CORPUSCULAR HEMOGLOBIN [1]: 24.9 pg | MEAN CORPUSCULAR HEMOGLOBIN CONCENTRATION [1]: 39.63 G/DL | MEAN CORPUSCULAR VOLUME [1]: 62.83 fL | MONOCYTE [1]: 0.67% | NEUTROPHIL [1]: 9.67% | NUCLEATED RED BLOOD CELLS [1]: 0.33 /100WBC | PLATELET COUNT [1]: 1244.67 x10E3/uL | ALANINE AMINOTRANSFERASE [1]: 62.33 u/L | ALBUMIN [1]: 4.43 G/DL | ALKALINE PHOSPHATASE [1]: 427.33 u/L | ASPARTATE AMINOTRANSFERASE [1]: 83.67 u/L | BLOOD UREA NITROGEN [1]: 16.33 mg/dL | CARBON DIOXIDE [1]: 29 mmol/L | CHLORIDE [1]: 98.67 MEQ/L | CHOLESTEROL [1]: 67 mg/dL | CREATINE PHOSPHOKINASE [1]: 289.67 u/L | CREATININE [1]: 0.22 mg/dL | GLUCOSE [1]: 142 mg/dL | LACTATE DEHYDROGENASE [1]: 152.33 u/L | LIPASE [1]: 9.33 u/L | PHOSPHORUS [1]: 14.03 mg/dL | POTASSIUM [1]: 7.04 MEQ/L | SODIUM [1]: 146.13 MEQ/L | TOTAL BILIRUBIN [1]: 0.3 mg/dL | TOTAL PROTEIN [1]: 6.1 G/DL | URIC ACID [1]: 1.77 mg/dL | ABSOLUTE BASOPHIL [2]: 0 CELLS/uL | ABSOLUTE EOSINOPHIL [2]: 60.33 CELLS/uL | ABSOLUTE LYMPHOCYTE [2]: 13263.33 CELLS/uL | ABSOLUTE MONOCYTE [2]: 23.33 CELLS/uL | ABSOLUTE SEGMENTED NEUTROPHIL [2]: 1019.67 CELLS/uL | BASOPHIL [2]: 0% | EOSINOPHIL [2]: 0.33% | ERYTHROCYTE COUNT [2]: 5.54 x10E6/uL | HEMATOCRIT [2]: 36.17% | HEMOGLOBIN [2]: 13.53 G/DL | LEUKOCYTE COUNT [2]: 14.37 x10E3/uL | LYMPHOCYTE [2]: 92.67% | MEAN CORPUSCULAR HEMOGLOBIN [2]: 24.4 pg | MEAN CORPUSCULAR HEMOGLOBIN CONCENTRATION [2]: 37.4 G/DL | MEAN CORPUSCULAR VOLUME [2]: 65.23 fL | MONOCYTE [2]: 0.33% | NEUTROPHIL [2]: 6.67% | NUCLEATED RED BLOOD CELLS [2]: 1 /100WBC | PLATELET COUNT [2]: 1225.67 x10E3/uL | ALANINE AMINOTRANSFERASE [2]: 52 u/L | ALBUMIN [2]: 4.3 G/DL | ALKALINE PHOSPHATASE [2]: 311.67 u/L | ASPARTATE AMINOTRANSFERASE [2]: 76 u/L | BLOOD UREA NITROGEN [2]: 15.33 mg/dL | CARBON DIOXIDE [2]: 26 mmol/L | CHLORIDE [2]: 102 MEQ/L | CHOLESTEROL [2]: 57.33 mg/dL | CREATINE PHOSPHOKINASE [2]: 211.67 u/L | CREATININE [2]: 0.21 mg/dL | GLUCOSE [2]: 175.67 mg/dL | LACTATE DEHYDROGENASE [2]: 113.33 u/L | LIPASE [2]: 8.67 u/L | PHOSPHORUS [2]: 12.6 mg/dL | POTASSIUM [2]: 6.61 MEQ/L | SODIUM [2]: 146.23 MEQ/L | TOTAL BILIRUBIN [2]: 0.23 mg/dL | TOTAL PROTEIN [2]: 6.1 G/DL | URIC ACID [2]: 1.7 mg/dL | ABSOLUTE BASOPHIL [3]: 0 CELLS/uL | ABSOLUTE EOSINOPHIL [3]: 0 CELLS/uL | ABSOLUTE LYMPHOCYTE [3]: 14453.33 CELLS/uL | ABSOLUTE MONOCYTE [3]: 60 CELLS/uL | ABSOLUTE SEGMENTED NEUTROPHIL [3]: 2253.33 CELLS/uL | BASOPHIL [3]: 0% | EOSINOPHIL [3]: 0% | ERYTHROCYTE COUNT [3]: 5.28 x10E6/uL | HEMATOCRIT [3]: 35.03% | HEMOGLOBIN [3]: 13.77 G/DL | LEUKOCYTE COUNT [3]: 16.77 x10E3/uL | LYMPHOCYTE [3]: 86.33% | MEAN CORPUSCULAR HEMOGLOBIN [3]: 26.07 pg | MEAN CORPUSCULAR HEMOGLOBIN CONCENTRATION [3]: 39.33 G/DL | MEAN CORPUSCULAR VOLUME [3]: 66.33 fL | MONOCYTE [3]: 0.33% | NEUTROPHIL [3]: 13.33% | NUCLEATED RED BLOOD CELLS [3]: 0 /100WBC | PLATELET COUNT [3]: 1212 x10E3/uL | ALANINE AMINOTRANSFERASE [3]: 44.33 u/L | ALBUMIN [3]: 4.3 G/DL | ALKALINE PHOSPHATASE [3]: 372.67 u/L | ASPARTATE AMINOTRANSFERASE [3]: 77.67 u/L | BLOOD UREA NITROGEN [3]: 11.33 mg/dL | CARBON DIOXIDE [3]: 32 mmol/L | CHLORIDE [3]: 102 MEQ/L | CHOLESTEROL [3]: 68.33 mg/dL | CREATINE PHOSPHOKINASE [3]: 183.67 u/L | CREATININE [3]: 0.15 mg/dL | GLUCOSE [3]: 156 mg/dL | LACTATE DEHYDROGENASE [3]: 116 u/L | LIPASE [3]: 8.67 u/L | PHOSPHORUS [3]: 13.4 mg/dL | POTASSIUM [3]: 6.98 MEQ/L | SODIUM [3]: 146.03 MEQ/L | TOTAL BILIRUBIN [3]: 0.17 mg/dL | TOTAL PROTEIN [3]: 6 G/DL | URIC ACID [3]: 1.83 mg/dL | ABSOLUTE BASOPHIL [4]: 0 CELLS/uL | ABSOLUTE EOSINOPHIL [4]: 46.33 CELLS/uL | ABSOLUTE LYMPHOCYTE [4]: 14356 CELLS/uL | ABSOLUTE MONOCYTE [4]: 200.33 CELLS/uL | ABSOLUTE SEGMENTED NEUTROPHIL [4]: 930.67 CELLS/uL | BASOPHIL [4]: 0% | EOSINOPHIL [4]: 0.33% | ERYTHROCYTE COUNT [4]: 5.73 x10E6/uL | HEMATOCRIT [4]: 35.37% | HEMOGLOBIN [4]: 14.17 G/DL | LEUKOCYTE COUNT [4]: 15.53 x10E3/uL | LYMPHOCYTE [4]: 92.33% | MEAN CORPUSCULAR HEMOGLOBIN [4]: 24.8 pg | MEAN CORPUSCULAR HEMOGLOBIN CONCENTRATION [4]: 40.07 G/DL | MEAN CORPUSCULAR VOLUME [4]: 61.77 fL | MONOCYTE [4]: 1.33% | NEUTROPHIL [4]: 6% | NUCLEATED RED BLOOD CELLS [4]: 0 /100WBC | PLATELET COUNT [4]: 1112.33 x10E3/uL | ALANINE AMINOTRANSFERASE [4]: 56.67 u/L | ALBUMIN [4]: 4.3 G/DL | ALKALINE PHOSPHATASE [4]: 387 u/L | ASPARTATE AMINOTRANSFERASE [4]: 87.33 u/L | BLOOD UREA NITROGEN [4]: 16.33 mg/dL | CARBON DIOXIDE [4]: 36 mmol/L | CHLORIDE [4]: 99.67 MEQ/L | CHOLESTEROL [4]: 57.33 mg/dL | CREATINE PHOSPHOKINASE [4]: 288.67 u/L | CREATININE [4]: 0.2 mg/dL | GLUCOSE [4]: 147 mg/dL | LACTATE DEHYDROGENASE [4]: 263.67 u/L | LIPASE [4]: 9 u/L | PHOSPHORUS [4]: 12.9 mg/dL | POTASSIUM [4]: 6.55 MEQ/L | SODIUM [4]: 145.83 MEQ/L | TOTAL BILIRUBIN [4]: 0.2 mg/dL | TOTAL PROTEIN [4]: 6.13 G/DL | URIC ACID [4]: 1.37 mg/dL
